These results are taken from US20210283220A1, “ANTIBODY MOLECULE-DRUG CONJUGATES AND USES THEREOF” (priority 2017, published 2021).

Assay [1] relates to E. coli. The assay can be described thus: Minimal inhibitory concentration (MIC) assay, broth microdilution. In kind it is cell-based, Escherichia coli. Particulars: for MIC Eco 25922: E. coli 25922; for MIC Eco 43745: E. coli 43745, in the presence of PBS.
The test system of assay [2] is P. aeruginosa. The assay is described as above. It is filed as cell-based, Pseudomonas aeruginosa.
Assay [3] concerns P. aeruginosa 27853. Put plainly: MIC / killing activity in the presence of human serum (hsMIC, 50% human serum). It is filed as cell-based, Pseudomonas aeruginosa. Particulars: for 50% hsMIC Pae 27853: P. aeruginosa 27853, 50% human serum; for hsMIC/MIC: ratio. As for the experimental part:
In an embodiment, the MIC is determined in the presence of phosphate-buffered saline (PBS). In an embodiment, the MIC or hsMIC is determined on per ADC basis. In an embodiment, the MIC or hsMIC is determined on per payload or antimicrobial peptide basis.

In assay [4] the test system is P. aeruginosa ATCC 27853. The assay can be described thus: Resistance rate determination (standard and micro-dotting protocols). In kind it is cell-based, Pseudomonas aeruginosa. The source says: . These rates are considered favorable when compared to published rates in the 10^−5 to 10^−8 range. […]
Assay [5] deals with S. aureus. Put plainly: Minimal inhibitory concentration (MIC) assay, broth microdilution. In kind it is cell-based, Staphylococcus aureus. The following applies: S. aureus 29213; in the presence of PBS. In general terms: In broth dilution the organism is exposed to a series of concentrations in liquid medium.
Procedure: (§1) Daughter plates were prepared as follows.
(§2) Cultured media were prepared as follows.
For assay [6], the system named is K. pneumoniae. Described as above. The following applies: K. pneumoniae 700603; in the presence of PBS. It is filed as cell-based, Klebsiella pneumoniae.
Procedure: as §1, §2
Assay [7] has as its system P. aeruginosa. The assay can be described thus: Microbial killing assay (percent killing, CFU). In kind it is cell-based, Pseudomonas aeruginosa. Particulars: for 50% Killing Activity, BAA-2108: MDR P. aeruginosa strain BAA-2108; for 50% Killing Activity, BAA-2110: MDR P. aeruginosa strain BAA-2110; for 50% Killing Activity, BAA-2114: MDR P. aeruginosa strain BAA-2114; for 50% Killing Activity, Pae 27853: P. aeruginosa strain 27853, Table 10.
Procedure: Bactericidal assay: Direct killing activity of the ADC can be measured against two well described laboratory strains of P. aeruginosa (PA14 and PA01) and no less than three clinical strains of P. aeruginosa, including MDR and Pan-resistant strains. These assays are conducted in the absence of complement or effector cells. Activity in this assay can provide insight on the inherent killing activity of the ADC.
The microbial killing assay was performed as follows. Bacterial cells were grown aerobically overnight on agar plates at 37° C. Overnight plates were used to seed 30 ml cultures of growth media in 250 ml vented flasks. Cultures were grown aerobically at 37° C., shaking at 150 rpm. Growth was monitored at A600 nM and bacterial cells were harvested at mid-log growth. Ten ml of culture was pelleted at 4000×G for 10 minutes and washed one time with PBS plus 1% BSA before re-suspending in 2 ml PBS+BSA. […] Cultures were diluted to 1×10^4 cells/ml in PBS plus BSA. Test articles were diluted in PBS+1% BSA and 50 μl per concentration tested was loaded into a 96 well polypropylene microtiter plate. Fifty μl of diluted culture was added to all test wells as well as no compound control wells. Plates were shaken and incubated at 37° C., 90 minutes, static. Ten μl from each assay well was plated onto agar plates and incubated at 37° C. overnight. Percent killing was determined by the CFU for test wells compared to the CFU for no compound control wells.

Setting [8] is: P. aeruginosa 27853, in the presence of PBS.
Where [9] appears, read: P. aeruginosa 39324, in the presence of PBS.

No end group written: not given here. Where only a bound is given, the exact number is not on record here.

In the case of “(MAL)-(EG3)-GIGKFLKKAKKFGKAFVKILKK [peptide 21]”, the “MIC Eco 25922” value in assay [1] worked out at 8 µg/mL.
In the case of Ceftazadime [reference compound], the “MIC Pae 27853” value in assay [2] (setting [8]) and in assay [2] (strain Pae27853) was 1 µg/mL throughout. Further, the “MIC Pae 39324” value in assay [2] (setting [9]) was determined as 1 µg/mL; in assay [2] (strain Pae39324) it was 2 µg/mL. Moreover, the “50% hsMIC Pae 27853” value in assay [3] turned out to be 1 µg/mL. Moreover, the hsMIC/MIC in assay [3] worked out at 1.
As for Colistin [reference compound], the results for the “resistance rate, Micro-dotting” value in assay [4] (2x MIC), in assay [4] (4x MIC) and in assay [4] (8x MIC) were 1.08E−07, 2.10E−09 and below 1.1E−09, respectively. The “resistance rate, Standard” value in assay [4] (2x MIC) is recorded as 6.50E−08; in assay [4] (4x MIC), 1.60E−09; in assay [4] (8x MIC), below 1.6E−09.
Turning to “GAFGNFLKGVAKKAGLKILSIAQCKLFGTC [peptide 70]”, the “MIC Pae 27853” value in assay [2] (P. aeruginosa 27853) was 8 µg/mL. The “MIC Eco 25922” value in assay [1] was found to be 4 µg/mL.
“GGG-D-Dab-cyclic(L-Dab-L-Dab-D-Leu-L-Phe-L-Dab-L-Dab-L-Leu) [GGG-Octapeptin]”: the “MIC Pae 27853” value in assay [2] (setting [8]) was 2 µg/mL. For the same substance, the “MIC Pae 39324” value in assay [2] (setting [9]) is 2 µg/mL. Besides, the “MIC Sau 29213” value in assay [5] is above 128 µg/mL. In addition, the “MIC Kpn 700603” value in assay [6] is above 128 µg/mL. Further, in assay [3], the “50% hsMIC Pae 27853” value was 2 µg/mL and the hsMIC/MIC turned out to be 1.
On to “GGGGIGKFLKKAKKFGKAFVKILKK [Peptide P261]”, for which the “MIC Eco 43745” value in assay [1] was 4 µg/mL.
“GGGGLRKRLRKFRNKIKEKLKKIGQKIQGLLPKLA [Peptide P271]”: the “MIC Eco 43745” value in assay [1] worked out at 4 µg/mL.
As for “GGGGLRRLGRKIAHGIKKYGPTILRIIRIAG [Peptide P293]”, the “MIC Pae 27853” value in assay [2] (setting [8]) was determined as 8 µg/mL. Moreover, the “MIC Pae 39324” value in assay [2] (setting [9]) amounted to 2 µg/mL. In addition, the “MIC Eco 43745” value in assay [1] was 4 µg/mL. In addition, in assay [6], the “MIC Kpn 700603” value was 4 µg/mL.
Turning to “GGGGRFKRFRKKFKKLFKKLSPVIPLLHLG [Peptide P295]”, the “MIC Pae 27853” value in assay [2] (setting [8]) was 4 µg/mL. Further, the “MIC Pae 39324” value in assay [2] (setting [9]) worked out at 4 µg/mL. In addition, the “MIC (P. aeruginosa ATCC 27853)” value in assay [2] lay within 1 to 4 µg/mL. Moreover, in assay [3], the “50% hsMIC Pae 27853” value is 2 µg/mL and the hsMIC/MIC is reported as 0.5. In addition, in assay [7], the “50% Killing Activity, BAA-2108” value is 0.6 µg/mL; the “50% Killing Activity, BAA-2110” value stood at 0.6 µg/mL; the “50% Killing Activity, BAA-2114” value is 0.14 µg/mL; the “50% Killing Activity, Pae 27853” value is 0.3 µg/mL.
“GGGGSGGGGSGIGKFLKKAKKFGKAFVKILKK [peptide 23]”: the “MIC Eco 25922” value in assay [1] stood at 8 µg/mL.
Consider “GGGKFFRKLKKSVKKRAKEFFKKPRVIGVSIPF [Peptide P297]”, for which the “MIC Pae 27853” value in assay [2] (setting [8]) amounted to 4 µg/mL. For the same substance, the “MIC Pae 39324” value in assay [2] (setting [9]) came out at 2 µg/mL. The “MIC (P. aeruginosa ATCC 27853)” value in assay [2] fell in the range of 1 to 4 µg/mL. Also, the “MIC Eco 43745” value in assay [1] amounted to 2 µg/mL. In assay [3], the “50% hsMIC Pae 27853” value worked out at 8 µg/mL and the hsMIC/MIC came out at 2. In assay [7], the “50% Killing Activity, BAA-2108” value stood at 0.28 µg/mL; the “50% Killing Activity, BAA-2110” value worked out at 0.28 µg/mL; the “50% Killing Activity, BAA-2114” value came to 0.07 µg/mL; the “50% Killing Activity, Pae 27853” value was determined as 0.04 µg/mL.
Take “GGGKRFKKFFKKLKNSVKKRAKKFFKKPRVIGVSIPF [Peptide P296]”: the “MIC Pae 27853” value in assay [2] (setting [8]) amounted to 4 µg/mL. In assay [2] (setting [9]), the “MIC Pae 39324” value came out at 2 µg/mL. Further, in assay [1], the “MIC Eco 43745” value was 4 µg/mL. For the same substance, in assay [3], the “50% hsMIC Pae 27853” value worked out at 1 µg/mL and the hsMIC/MIC is 0.25.
On to “GGGLLGDFFRKSKEKIGKEFKRIVQRIKDFLRNLVPRTES [Peptide P265]”, for which, in assay [1], the “MIC Eco 43745” value amounted to 8 µg/mL. In addition, in assay [6], the “MIC Kpn 700603” value was above 128 µg/mL. For the same substance, in assay [3], the “50% hsMIC Pae 27853” value is above 128 µg/mL and the hsMIC/MIC was above 4.
On to “GGGRGLRRLGRKIAHGVKKYGPTVLRIIKKYG [Peptide P294]”, for which, in assay [1], the “MIC Eco 43745” value turned out to be 2 µg/mL. Also, the “MIC Kpn 700603” value in assay [6] came out at 8 µg/mL.
For the substance GIGKFLKKAKKFGKAFVKILKK [peptide 109], the “MIC Pae 27853” value in assay [2] (P. aeruginosa 27853) was found to be 8 µg/mL. Moreover, the “MIC Eco 25922” value in assay [1] was found to be 4 µg/mL.
As to “GIGKFLKKAKKFGKAFVKILKK-NH2 [Peptide P32]”, the entries for the “resistance rate, Micro-dotting” value in assay [4] (2x MIC), in assay [4] (4x MIC) and in assay [4] (8x MIC) were 1.08E−07, 9.59E−08 and 8.02E−09, respectively. Further, the “resistance rate, Standard” value in assay [4] (4x MIC) and in assay [4] (8x MIC) was below 1.6E−09 in each case. The “growth of resistant colonies, standard protocol” value in assay [4] (4×MIC and above) is reported as “no growth was observed”.
On to “GIGKFLKKAKKFGKAFVKILKKGGGGSGGGGS [peptide 24]”, for which, in assay [2] (P. aeruginosa 27853), the “MIC Pae 27853” value amounted to 8 µg/mL.
As for “GLRKRLRKFRNKIKEKLKKIGQKIQGLLPKLA [Peptide 33]”, the “MIC Pae 27853” value in assay [2] (P. aeruginosa 27853) stood at 8 µg/mL. Besides, the “MIC Eco 25922” value in assay [1] was 8 µg/mL.
Turning to “RLGNFFRKAKKKIGRGLKKIGQKIKDFLGNLVPRTES [peptide 128]”, the “MIC Pae 27853” value in assay [2] (P. aeruginosa 27853) came out at 8 µg/mL.
